From patent publication US20160115540A1, “PRODRUGS AND DRUGS” (Biogen MA Inc., priority 2013, published 2016)
Structures can show the parent of a compound that is named as a salt.

System: liver
Experiment: Transcriptional profiling on Affymetrix GeneChips, single dose, naïve mice: liver
Assay type: in vivo, C57BL/6 mice
Conditions: for Number of differentially expressed genes identified: Liver: Naïve, Single Dose
Experimental: Treated mice were sacrificed at 2, 7, or 12 hours. Tissues (liver, spleen, kidney, jejunum, cortex, hippocampus, striatum and whole blood) were collected and analyzed by transcriptional profiling on mouse Affymetrix GeneChips.
Tissues (liver, spleen, kidney, jejunum, cortex, hippocampus, striatum and whole blood) were collected and analyzed by transcriptional profiling on mouse Affymetrix GeneChips.
Animals were exposed to CO2 and whole blood collected via cardiac puncture. Two 100 μl aliquots of whole blood were collected in 1.5 mL microcentrifuge tubes and snap frozen in liquid nitrogen. Peripheral (liver, spleen, kidney and jejunum) and CNS brain (cerebellum, hippocampus, striatum and cortex) tissues were harvested and snap frozen in liquid nitrogen, with special care taken to collect tissues of similar size and from the same location. All samples were stored at −80° C. until RNA extraction was conducted.
For RNA preparation, frozen tissues were placed in 2 mL RNAse-free 96-well blocks with 1.5 mL QIAzol Lysis Reagent (QIAgen) and a 3.2 mm stainless steel bead (BioSpec Products, Bartlesville, Okla.). Tissues were disrupted for four cycles of 45 seconds in a Mini-Beadbeater (Biospec Products). RNA was extracted in chloroform and the aqueous phase was mixed with an equal volume of 70% ethanol. Extracted RNA was applied to RNeasy 96 plates and purified by the spin method according to the manufacturer's protocol (RNeasy 96 Universal Tissue Protocol, QIAgen, Hilden Germany).
Automated sample amplifications and biotin labelings were carried out using the NuGEN Ovation RNA Amplification system V2 (Cat #3100), Ovation WB reagent (Cat #1300) and Encore Biotin module (Cat #4200) (NuGEN Technologies, Inc, San Carlos, Calif.) according to manufacturer's recommendations using an Arrayplex automated liquid handler (Beckman Coulter, Indianapolis, Ind.). Two micrograms of biotin labeled sscDNA probe were hybridized to Affymetrix GeneChip Affymetrix HT_MG-430_PM plate arrays with modified conditions as described in Allaire et al. Washing and staining of the hybridized arrays were completed as described in the GeneChip Expression analysis technical manual for HT plate arrays using the Genechip® Array Station (Affymetrix, Santa Clara, Calif.) with modifications as described in Allaire et al. The processed GeneChip® plate arrays were scanned using GeneTitan scanner (Affymetrix, Santa Clara, Calif.).
Affymetrix scans were subject to quality control (QC) measures. These tests included a visual inspection of the distribution of raw signal intensities and an assessment of RNA degradation, relative log expression (RLE), and normalized unsealed standard error (NUSE). All sample scans that passed these QC metrics were included in the analysis.
All CEL files were subjected to GC-content-based Robust Multi-array Average (GCRMA) normalization (version 2.20.0) (Irizarry R A, et al. Nucleic Acids Res 2003; 31:e15; Li C, et al. Genome Biol 2001; 2:[…]0032). Expression levels were log (base 2) transformed.
All calculations and analyses were carried out using R (version 2.11.1) and Bioconductor computational tools (Gentleman R. Springer Science+Business Media 2005).

[1] = liver, 100 mg/kg, 2 hr, vs matched vehicle controls
[2] = liver, 100 mg/kg, 7 hr, vs matched vehicle controls

COC(=O)/C=C/C(=O)OC [DMF, dimethyl fumarate]
FC Dnajc12 (DnaJ (Hsp40) homolog, subfamily C, member 12) (100DMF-vs-100MMF, 12 h, probe 1417441_PM_at, naïve single dose, tissue section before SPLEEN): −2.49
FC Cyb561 (cytochrome b-561) (100DMF-vs-100MMF, 12 h, probe 1417507_PM_at, naïve single dose, tissue section before SPLEEN): −2.02
FC Crybb3 (crystallin, beta B3) (100DMF-vs-100MMF, 12 h, probe 1419005_PM_at, naïve single dose, tissue section before SPLEEN): −1.69
FC 9130221J18Rik (RIKEN cDNA 9130221J18 gene) (100DMF-vs-100MMF, 12 h, probe 1446368_PM_at, naïve single dose, tissue section before SPLEEN): −1.93
FC Tnfrsf19 (1448147_PM_at) (LIVER, 100DMF-vs-100MMF, 7 h): 1.73
FC Isyna1 (1415977_PM_at) (LIVER, 100DMF-vs-100MMF, 12 h): −1.76
FC 1447411_PM_at (no gene symbol) (LIVER, 100DMF-vs-Veh, 2 h): 2.57
FC 5430435G22Rik (1435830_PM_a_at) (LIVER, 100DMF-vs-Veh, 2 h): 1.79
FC 9130221J17Rik (1443159_PM_at) (LIVER, 100DMF-vs-Veh, 2 h): 1.54
FC Abcc1 (1452233_PM_at) (LIVER, 100DMF-vs-Veh, 2 h): 1.75
FC Akr1b8 (1448894_PM_at) (LIVER, 100DMF-vs-Veh, 2 h): 2.18
FC Clec4n (1419627_PM_s_at) (LIVER, 100DMF-vs-Veh, 2 h): 2.34
FC Clec4d (1420804_PM_s_at) (LIVER, 100DMF-vs-Veh, 2 h): 2.30
FC Figf (1438953_PM_at) (LIVER, 100DMF-vs-Veh, 2 h): 2.23
FC Figf (1438954_PM_x_at) (LIVER, 100DMF-vs-Veh, 2 h): 1.90
FC Figf (1449528_PM_at) (LIVER, 100DMF-vs-Veh, 2 h): 1.66
FC Hmox1 1448239_PM_at (LIVER, 100DMF-vs-Veh, 2 h): 2.37
FC Pgd (1436771_PM_x_at) (LIVER, 100DMF-vs-Veh, 2 h): 1.59
FC Pgd (1437380_PM_x_at) (LIVER, 100DMF-vs-Veh, 2 h): 1.61
FC Ppfibp2 (1417801_PM_a_at) (LIVER, 100DMF-vs-Veh, 2 h): 2.38
FC Srxn1 (1419942_PM_at) (LIVER, 100DMF-vs-Veh, 2 h): 1.69
FC Srxn1 (1426875_PM_s_at) (LIVER, 100DMF-vs-Veh, 2 h): 1.64
FC Srxn1 (1451680_PM_at) (LIVER, 100DMF-vs-Veh, 2 h): 1.59
FC Adora1 (1435495_PM_at) (LIVER, 100DMF-vs-Veh, 7 h): 1.50
FC Akr1b8 (1448894_PM_at) (LIVER, 100DMF-vs-Veh, 7 h): 1.58
FC Bmp6 (1450759_PM_at) (LIVER, 100DMF-vs-Veh, 7 h): 1.57
FC Clec4n (1419627_PM_s_at) (LIVER, 100DMF-vs-Veh, 7 h): 2.01
FC Nqo1 (1423627_PM_at) (LIVER, 100DMF-vs-Veh, 7 h): 1.81
FC Gstm4 (1424835_PM_at) (LIVER, 100DMF-vs-Veh, 12 h): 1.54
Number of genes, DMF Only / MMF Only (Liver): 2
Number of differentially expressed genes identified: Liver (100 mpk DMF-vs-100 mpk MMF, 2 h after last dosing): 0
Number of differentially expressed genes identified: Liver (100 mpk DMF-vs-100 mpk MMF, 7 h after last dosing): 1
Number of differentially expressed genes identified: Liver (100 mpk DMF-vs-100 mpk MMF, 12 h after last dosing): 5
Number of differentially expressed genes identified: Liver (100 mpk, vs Vehicle, 2 h after last dosing): 18
Number of differentially expressed genes identified: Liver (100 mpk, vs Vehicle, 7 h after last dosing): 5
Number of differentially expressed genes identified: Liver (100 mpk, vs Vehicle, 12 h after last dosing): 1
Murine Liver DEGs: Abcc1 (1452233_PM_at) [1]: 1.75
Murine Liver DEGs: Akr1b8 (1448894_PM_at) [1]: 2.18
Murine Liver DEGs: Clec4n (1419627_PM_s_at) [1]: 2.34
Murine Liver DEGs: Clec4d (1420804_PM_s_at) [1]: 2.30
Murine Liver DEGs: Figf (1438953_PM_at) [1]: 2.23
Murine Liver DEGs: Hmox1 (1448239_PM_at) [1]: 2.37
Murine Liver DEGs: Pgd (1436771_PM_x_at) [1]: 1.59
Murine Liver DEGs: Ppfibp2 (1417801_PM_a_at) [1]: 2.38
Murine Liver DEGs: Srxn1 (1419942_PM_at) [1]: 1.69
Murine Liver DEGs: Adora1 (1435495_PM_at) [2]: 1.50
Murine Liver DEGs: Akr1b8 (1448894_PM_at) [2]: 1.58
Murine Liver DEGs: Bmp6 (1450759_PM_at) [2]: 1.57
Murine Liver DEGs: Clec4n (1419627_PM_s_at) [2]: 2.01
Murine Liver DEGs: Nqo1 (1423627_PM_at) [2]: 1.81
Murine Liver DEGs: Gstm4 (1424835_PM_at) (liver, 100 mg/kg, 12 hr, vs matched vehicle controls): 1.12
Abcc1 (probe set 1452233_PM_at) differential expression (liver, 2 hr): 1.75
Akr1b8 (probe set 1448894_PM_at) differential expression (liver, 2 hr): 2.18
Clec4n (probe set 1419627_PM_s_at) differential expression (liver, 2 hr): 2.34
Clec4d (probe set 1420804_PM_s_at) differential expression (liver, 2 hr): 2.30
Figf (probe set 1438953_PM_at) differential expression (liver, 2 hr): 2.23
Hmox1 (probe set 1448239_PM_at) differential expression (liver, 2 hr): 2.37
Pgd (probe set 1436771_PM_x_at) differential expression (liver, 2 hr): 1.59
Ppfibp2 (probe set 1417801_PM_a_at) differential expression (liver, 2 hr): 2.38
Srxn1 (probe set 1419942_PM_at) differential expression (liver, 2 hr): 1.69
Adora1 (probe set 1435495_PM_at) differential expression (liver, 7 hr): 1.50
Akr1b8 (probe set 1448894_PM_at) differential expression (liver, 7 hr): 1.58
Bmp6 (probe set 1450759_PM_at) differential expression (liver, 7 hr): 1.57
Clec4n (probe set 1419627_PM_s_at) differential expression (liver, 7 hr): 2.01
Nqo1 (probe set 1423627_PM_at) differential expression (liver, 7 hr): 1.81
Gstm4 (probe set 1424835_PM_at) differential expression (liver, 12 hr): 1.12
